Experiment [1] deals with H3K27 methylation in G401 cell. The experiment can be described thus: ELISA (H3K27 methylation) assay in G401 cells. As to conditions: Homo sapiens, G-401, H3K27 methylation ELISA, read-out: (c) IC50 ELISA Qualified. It counts as cell-based, human. The gist of the method:
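IC50 from dose-response fit of percent inhibition relative to DMSO, using H3K27me3/me2 ELISA signal (ECL) normalized to histone H3. Histones HCl-extracted after 48 h compound exposure of G401 cells at up to 20 μM, 8- or 12-point 3-fold series.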
(In general: An ELISA detects its analyte on a solid surface through an enzyme-linked reagent.)

The target in a further experiment is T1, EED (1-441)-His protein (Homo sapiens, UniProt O75530).
T1 construct: 30 nM EED (1-441)-His protein
The experiment can be described thus: EED-H3K27Me3 peptide competition binding assay by AlphaScreen. The note with it: EED-H3K27Me3 peptide competition, AlphaScreen; read-out: (a) IC50 EED Alphascreen binding Qualified. The gist of the method:
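Serially diluted compound (12 points, 3-fold) incubated 20 min with 30 nM EED(1-441)-His and 15 nM biotin-H3K27Me3(19-33) peptide in 25 mM HEPES pH 8, 0.02% Tween-20, 0.5% BSA. Ni-chelate acceptor/streptavidin donor beads (10 μg/mL each) added, 1 h rt dark; 615 nm emission normalized to controls, dose-response fit for IC50.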
(In general: Bead proximity is the source of the signal in Alpha formats.)

The target of experiment [2] is wild type PRC2 (wtPRC2) complex (Homo sapiens, UniProt O75530). In words: EED LC-MS assay (SAH production by PRC2). It counts as biochemical. As to conditions: PRC2 LC-MS assay; read-out: (b) IC50 EED LC-MS Qualified. A digest of the protocol:
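LC-MS/MS readout of SAH (d4-SAH standard) after TFA quench gives PRC2 activity, normalized to controls and fitted to dose-response for IC50. Reaction: 12 nM EZH2/SUZ12/EED/Rbap48/AEBP complex, 1 μM SAM, 1.5 μM H3[21-44] peptide, 120 min rt, 20 min compound preincubation.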

Chain of wild type PRC2 (wtPRC2) complex (O75530 whole entry): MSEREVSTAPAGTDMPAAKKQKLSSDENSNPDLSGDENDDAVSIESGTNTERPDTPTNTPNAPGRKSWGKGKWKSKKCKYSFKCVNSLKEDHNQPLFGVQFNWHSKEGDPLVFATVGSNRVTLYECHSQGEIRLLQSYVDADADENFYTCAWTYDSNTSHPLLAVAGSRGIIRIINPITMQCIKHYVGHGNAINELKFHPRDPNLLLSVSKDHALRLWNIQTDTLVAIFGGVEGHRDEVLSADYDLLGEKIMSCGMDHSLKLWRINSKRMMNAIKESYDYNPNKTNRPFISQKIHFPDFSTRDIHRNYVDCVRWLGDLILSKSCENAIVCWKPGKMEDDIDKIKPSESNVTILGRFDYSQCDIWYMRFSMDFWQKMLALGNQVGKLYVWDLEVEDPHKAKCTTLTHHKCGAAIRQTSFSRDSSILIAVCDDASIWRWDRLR
Chain of wild type PRC2 (wtPRC2) complex (Q15910 whole entry partner): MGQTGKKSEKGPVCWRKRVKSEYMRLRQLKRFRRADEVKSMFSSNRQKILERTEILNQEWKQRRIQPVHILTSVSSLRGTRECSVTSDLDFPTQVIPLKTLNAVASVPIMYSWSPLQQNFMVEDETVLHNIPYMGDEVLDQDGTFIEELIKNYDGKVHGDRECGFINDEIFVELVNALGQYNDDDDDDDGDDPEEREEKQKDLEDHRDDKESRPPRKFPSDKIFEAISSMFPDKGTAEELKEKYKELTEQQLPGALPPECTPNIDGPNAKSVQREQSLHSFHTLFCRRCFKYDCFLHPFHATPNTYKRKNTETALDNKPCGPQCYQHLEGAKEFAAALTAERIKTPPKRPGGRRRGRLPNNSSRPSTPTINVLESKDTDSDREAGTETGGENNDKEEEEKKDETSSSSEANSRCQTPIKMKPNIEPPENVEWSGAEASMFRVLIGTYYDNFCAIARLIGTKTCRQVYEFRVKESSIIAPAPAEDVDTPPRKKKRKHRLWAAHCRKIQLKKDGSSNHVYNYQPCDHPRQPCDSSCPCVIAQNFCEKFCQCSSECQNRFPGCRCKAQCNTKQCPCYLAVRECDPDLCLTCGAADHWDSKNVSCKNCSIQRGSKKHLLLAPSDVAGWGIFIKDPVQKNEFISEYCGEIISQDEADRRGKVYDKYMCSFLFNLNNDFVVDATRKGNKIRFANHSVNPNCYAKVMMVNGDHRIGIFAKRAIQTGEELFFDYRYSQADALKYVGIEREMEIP
Chain of wild type PRC2 (wtPRC2) complex (Q15022 whole entry partner): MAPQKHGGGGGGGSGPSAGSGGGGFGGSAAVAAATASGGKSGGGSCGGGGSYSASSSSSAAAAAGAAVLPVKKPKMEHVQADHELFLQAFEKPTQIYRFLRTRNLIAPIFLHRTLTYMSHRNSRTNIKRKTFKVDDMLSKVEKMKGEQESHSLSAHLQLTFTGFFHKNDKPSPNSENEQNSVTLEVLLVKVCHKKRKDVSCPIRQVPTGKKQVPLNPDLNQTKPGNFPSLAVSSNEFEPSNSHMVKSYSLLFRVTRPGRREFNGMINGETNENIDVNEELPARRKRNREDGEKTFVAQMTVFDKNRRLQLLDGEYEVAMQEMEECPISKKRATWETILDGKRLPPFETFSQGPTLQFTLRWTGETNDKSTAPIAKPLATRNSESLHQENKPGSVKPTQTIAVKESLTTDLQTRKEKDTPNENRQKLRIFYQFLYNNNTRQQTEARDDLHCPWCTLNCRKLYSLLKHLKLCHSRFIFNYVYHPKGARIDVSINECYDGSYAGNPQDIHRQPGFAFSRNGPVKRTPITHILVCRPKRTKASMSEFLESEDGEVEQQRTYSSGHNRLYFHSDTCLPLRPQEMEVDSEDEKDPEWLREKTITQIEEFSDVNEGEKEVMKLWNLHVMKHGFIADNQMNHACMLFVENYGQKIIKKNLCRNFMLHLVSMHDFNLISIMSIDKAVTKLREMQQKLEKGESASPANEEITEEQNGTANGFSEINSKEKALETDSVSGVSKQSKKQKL
Chain of wild type PRC2 (wtPRC2) complex (Q09028 whole entry partner): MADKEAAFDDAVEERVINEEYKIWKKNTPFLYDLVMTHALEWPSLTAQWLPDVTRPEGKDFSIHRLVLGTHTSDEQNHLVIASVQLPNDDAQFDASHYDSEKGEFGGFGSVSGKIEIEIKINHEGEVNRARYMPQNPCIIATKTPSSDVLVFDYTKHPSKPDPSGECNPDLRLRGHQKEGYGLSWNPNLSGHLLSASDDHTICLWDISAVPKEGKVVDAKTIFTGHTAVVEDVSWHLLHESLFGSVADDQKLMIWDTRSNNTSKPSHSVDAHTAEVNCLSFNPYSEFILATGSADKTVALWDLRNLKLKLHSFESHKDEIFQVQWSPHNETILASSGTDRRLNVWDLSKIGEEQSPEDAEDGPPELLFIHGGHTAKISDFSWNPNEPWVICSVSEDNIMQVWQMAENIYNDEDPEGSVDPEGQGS
Chain of wild type PRC2 (wtPRC2) complex (Q6ZN18 whole entry partner): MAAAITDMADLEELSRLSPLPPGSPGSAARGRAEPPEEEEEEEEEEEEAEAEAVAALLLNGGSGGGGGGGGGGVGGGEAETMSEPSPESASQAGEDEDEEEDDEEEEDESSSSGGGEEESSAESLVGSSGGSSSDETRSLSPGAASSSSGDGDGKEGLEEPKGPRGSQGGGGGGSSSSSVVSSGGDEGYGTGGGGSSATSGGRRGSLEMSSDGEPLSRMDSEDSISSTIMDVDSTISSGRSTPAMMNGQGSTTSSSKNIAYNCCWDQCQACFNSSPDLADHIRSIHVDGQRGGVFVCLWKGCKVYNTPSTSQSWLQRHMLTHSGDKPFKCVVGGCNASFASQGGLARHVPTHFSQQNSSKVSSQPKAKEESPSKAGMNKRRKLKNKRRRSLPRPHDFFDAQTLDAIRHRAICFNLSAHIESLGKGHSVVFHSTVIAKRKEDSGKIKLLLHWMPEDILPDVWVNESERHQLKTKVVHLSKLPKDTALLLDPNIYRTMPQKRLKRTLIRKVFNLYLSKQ
T1 sequence (O75530 whole entry): as the sequence (O75530 whole entry) above

As a reminder, the IC50 is the concentration that gives 50% inhibition. Consider `COc1cccc(F)c1CNc1ccc(-c2ccc(F)nc2C)c2nncn12` [Example 222, 8-(6-fluoro-2-methylpyridin-3-yl)-N-(2-fluoro-6-methoxybenzyl)-[1,2,4]triazolo[4,3-a] pyridin-5-amine], for which the IC50 in experiment [1] stood at 9.9 nM; at EED (1-441)-His protein, 9.9 nM; in experiment [2], 122 nM.
As for `COc1cccc(F)c1CNc1ccc(-c2cc(F)ccc2C)c2nncn12` [Example 223, 8-(5-fluoro-2-methylphenyl)-N-(2-fluoro-6-methoxybenzyl)-[1,2,4]triazolo[4,3-a] pyridin-5-amine], the results for the IC50 (in experiment [1]; at EED (1-441)-His protein; in experiment [2]) were 66.7 nM, 23.3 nM and 230 nM, respectively.
As for `COc1cccc(F)c1CNc1ccc(-c2cnn(C3CCNCC3)c2)c2nncn12` [Example 225, N-(2-fluoro-6-methoxybenzyl)-8-(1-(piperidin-4-yl)-1H-pyrazol-4-yl)-[1,2,4]triazolo[4,3-a]pyridin-5-amine], the concentration for half-maximal inhibition (IC50) in experiment [1] was determined as 15.9 nM; on EED (1-441)-His protein it was 26.9 nM; in experiment [2] it was 147 nM.
Take `COc1cccc(F)c1CNc1ccc(-c2cnn(CCN3CCOCC3)c2)c2nncn12` [Example 226, N-(2-fluoro-6-methoxybenzyl)-8-(1-(2-morpholinoethyl)-1H-pyrazol-4-yl)-[1,2,4] triazolo[4,3-a]pyridin-5-amine]: the IC50 stood at 38.8 nM in experiment [1], 43.3 nM on EED (1-441)-His protein and 92 nM in experiment [2].
As to `COc1cc(F)cc(F)c1CNc1ccc(-c2c(C)noc2C)c2nncn12` [Example 227, N-(2,4-difluoro-6-methoxybenzyl)-8-(3,5-dimethylisoxazol-4-yl)-[1,2,4] triazolo[4,3-a]pyridin-5-amine], the IC50 in experiment [1] stood at 40.2 nM; at EED (1-441)-His protein, 45.5 nM; in experiment [2], 131 nM.
As for `COc1cc(F)cc(F)c1CNc1ccc(-c2ccncc2)c2nncn12` [Example 228, N-(2,4-difluoro-6-methoxybenzyl)-8-(pyridin-4-yl)-[1,2,4]triazolo[4,3-a]pyridin-5-amine], the IC50 is 43.7 nM in experiment [1], 78.9 nM at EED (1-441)-His protein and 98.6 nM in experiment [2].
In the case of `COc1cccc(F)c1CNc1ccc(-c2ccc(S(C)(=O)=O)cc2C)c2nncn12` [Example 229, N-(2-fluoro-6-methoxybenzyl)-8-(2-methyl-4-(methylsulfonyl)phenyl)-[1,2,4]triazolo[4,3-a]pyridin-5-amine], the half-maximal inhibitory concentration (IC50) is 13.5 nM in experiment [1], 16.1 nM at EED (1-441)-His protein and 55.9 nM in experiment [2].
`COc1cccc(F)c1CNc1ccc(-c2ccncc2C)c2nncn12` [Example 230, N-(2-fluoro-6-methoxybenzyl)-8-(3-methylpyridin-4-yl)-[1,2,4]triazolo[4,3-a] pyridin-5-amine]: the 50% inhibitory concentration (IC50) in experiment [1] is 9.4 nM; at EED (1-441)-His protein, 12.9 nM; in experiment [2], 27.2 nM.
On to `COc1cccc(F)c1CNc1ccc(-c2ccc(C(=O)N(C)C)cc2C)c2nncn12` [Example 231, 4-(5-((2-fluoro-6-methoxybenzyl)amino)-[1,2,4]triazolo[4,3-a]pyridin-8-yl)-N,N,3-trimethylbenzamide], for which the half-inhibitory concentration (IC50) in experiment [1] came to 3.4 nM; at EED (1-441)-His protein, 7.7 nM; in experiment [2] it was 29.1 nM.
Turning to `COc1cccc(F)c1CNc1ccc(-c2ccnn2C(C)C)c2nncn12` [Example 232, N-(2-fluoro-6-methoxybenzyl)-8-(1-isopropyl-1H-pyrazol-5-yl)-[1,2,4] triazolo[4,3-a]pyridin-5-amine], the IC50 in experiment [1] is 62.2 nM; on EED (1-441)-His protein, 50 nM; in experiment [2] it was 159 nM.
Consider `CCn1nccc1-c1ccc(NCc2c(F)cccc2OC)n2cnnc12` [Example 233, 8-(1-ethyl-1H-pyrazol-5-yl)-N-(2-fluoro-6-methoxybenzyl)-[1,2,4]triazolo[4,3-a] pyridin-5-amine], for which the results for the IC50 (in experiment [1]; at EED (1-441)-His protein; in experiment [2]) were 15.3 nM, 14 nM and 47.8 nM, respectively.
`COc1cccc(F)c1CNc1ccc(-c2ccc(CCC(=O)N(C)C)nc2)c2nncn12` [Example 234, 3-(5-(5-((2-fluoro-6-methoxybenzyl)amino)-[1,2,4]triazolo[4,3-a]pyridin-8-yl)pyridin-2-yl)-N,N-dimethyl propanamide]: the IC50 in experiment [1] came out at 26.3 nM; at EED (1-441)-His protein, 35 nM; in experiment [2], 149 nM.
`COc1cc(F)cc(F)c1CNc1ccc(-c2ccc(S(C)(=O)=O)cc2)c2nncn12` [Example 235, N-(2,4-difluoro-6-methoxybenzyl)-8-(4-(methylsulfonyl)phenyl)-[1,2,4]triazolo[4,3-a]pyridin-5-amine]: the IC50 amounted to 138 nM in experiment [1], 68.7 nM at EED (1-441)-His protein and 107 nM in experiment [2].
`COc1cccc(F)c1CNc1ccc(-c2cnccc2Cl)c2nncn12` [Example 236, 8-(4-chloropyridin-3-yl)-N-(2-fluoro-6-methoxybenzyl)-[1,2,4]triazolo[4,3-a]pyridin-5-amine]: the IC50 was found to be 66.3 nM in experiment [1], 83.6 nM on EED (1-441)-His protein and 116 nM in experiment [2].
For `COc1cccc(F)c1CNc1ccc(-c2cccnc2C(F)(F)F)c2nncn12` [Example 237, N-(2-fluoro-6-methoxybenzyl)-8-(2-(trifluoromethyl)pyridin-3-yl)-[1,2,4]triazolo[4,3-a] pyridin-5-amine], the IC50 in experiment [1] is 116 nM; at EED (1-441)-His protein, 86.9 nM; in experiment [2], 116 nM.
For `COc1cccc(F)c1CNc1ccc(-c2ccccc2CO)c2nncn12` [Example 238, (2-(5-((2-fluoro-6-methoxy benzyl)amino)-[1,2,4]triazolo[4,3-a]pyridin-8-yl)phenyl)methanol], the IC50 in experiment [1] came to 85.3 nM; at EED (1-441)-His protein, 74.5 nM; in experiment [2], 153 nM.
For `COc1cc(F)cc(F)c1CNc1ccc(-c2cccnc2C)c2nncn12` [Example 239, N-(2,4-difluoro-6-methoxybenzyl)-8-(2-methylpyridin-3-yl)-[1,2,4]triazolo[4,3-a]pyridin-5-amine] the same measures were 20 nM, 24.6 nM and 39.6 nM.
Consider `COc1cc(F)cc(F)c1CNc1ccc(-c2cnc(S(C)(=O)=O)cc2C)c2nncn12` [Example 240, N-(2,4-difluoro-6-methoxybenzyl)-8-(4-methyl-6-(methylsulfonyl)pyridin-3-yl)-[1,2,4]triazolo[4,3-a] pyridin-5-amine], for which the half-maximal inhibitory concentration (IC50) is 29.5 nM in experiment [1], 52.1 nM on EED (1-441)-His protein and 53.4 nM in experiment [2].
In the case of `COc1cc(F)cc(F)c1CNc1ccc(-c2ccc(S(C)(=O)=O)nc2C)c2nncn12` [Example 241, N-(2,4-difluoro-6-methoxybenzyl)-8-(2-methyl-6-(methylsulfonyl)pyridin-3-yl)-[1,2,4]triazolo[4,3-a] pyridin-5-amine], the figures for the IC50 (in experiment [1]; on EED (1-441)-His protein; in experiment [2]) were 12.6 nM, 16.2 nM and 56.2 nM, respectively.
Take `COc1cccc(F)c1CNc1ccc(-c2c(C)nn(C(C)C)c2C)c2nncn12` [Example 245, N-(2-fluoro-6-methoxybenzyl)-8-(1-isopropyl-3,5-dimethyl-1H-pyrazol-4-yl)-[1,2,4]triazolo[4,3-a]pyridin-5-amine]: the concentration for half-maximal inhibition (IC50) in experiment [1] was found to be 8.2 nM; on EED (1-441)-His protein, 14.6 nM; in experiment [2], 27.7 nM.
As for `COC(=O)N1CCC(n2cc(-c3ccc(NCc4c(F)cccc4OC)n4cnnc34)cn2)CC1` [Example 246, methyl 4-(4-(5-((2-fluoro-6-methoxybenzyl)amino)-[1,2,4]triazolo[4,3-a]pyridin-8-yl)-1H-pyrazol-1-yl) piperidine-1-carboxylate], the IC50 in experiment [1] stood at 242 nM; on EED (1-441)-His protein, 68.9 nM; in experiment [2] it was 106 nM.
Regarding `COc1cccc(F)c1CNc1ccc(-c2cn(C)nc2C(F)(F)F)c2nncn12` [Example 247, N-(2-fluoro-6-methoxybenzyl)-8-(1-methyl-3-(trifluoromethyl)-1H-pyrazol-4-yl)-[1,2,4]triazolo[4,3-a] pyridin-5-amine], the IC50 in experiment [1] was determined as 42.7 nM; on EED (1-441)-His protein, 35.8 nM; in experiment [2], 700 nM.
As for `COc1cccc(F)c1CNc1ccc(-c2cnc(F)cc2C)c2nncn12` [Example 248, 8-(6-fluoro-4-methylpyridin-3-yl)-N-(2-fluoro-6-methoxybenzyl)-[1,2,4]triazolo[4,3-a] pyridin-5-amine], the IC50 in experiment [1] was 9.6 nM; on EED (1-441)-His protein, 16.5 nM; in experiment [2], 81.8 nM.
Turning to `COc1cccc(F)c1CNc1ccc(-c2ccc(C)nc2C)c2nncn12` [Example 249, 8-(2,6-dimethylpyridin-3-yl)-N-(2-fluoro-6-methoxybenzyl)-[1,2,4]triazolo[4,3-a] pyridin-5-amine], the results for the IC50 (in experiment [1]; on EED (1-441)-His protein; in experiment [2]) were 12.4 nM, 22.7 nM and 41.9 nM, respectively.
For `COc1cccc(F)c1CNc1ccc(-c2ccc(C#N)nc2C)c2nncn12` [Example 250, 5-(5-((2-fluoro-6-methoxybenzyl)amino)-[1,2,4]triazolo[4,3-a]pyridin-8-yl)-6-methylpicolinonitrile], in that order: 6.5 nM, 14.3 nM and 20.2 nM.

(Values after US10689378B2, “Triazolopyridine compounds and uses thereof” (Novartis AG, priority 2016, dated 2020).)
